Source: patent US11241398B2, “Affinity medicant conjugate” (Califia Pharma Inc., priority 2014, dated 2022)
Residues, ends and D or L forms follow the SMILES beside them. *: point of attachment. X3 = CC1=C(C*)C2=C(C)C3(CC3)C(C)(O)C(=O)C2=C1

Key:
8392B cell line [1] = assay: 48 hour exposure, growth or viability by Trypan Blue Exclusion assay, nontarget cell line; assay type: cell-based; conditions: for IC50: read-out: Mean IC50 value, 8392B Nontarget Cell Line, 48 hr exposure, 8392B nontarget cell line, 48 hr exposure, mean ± SD, N = 3 unless otherwise indicated
Procedure: (§1) The MV522 cell line is a lung-derived adenocarcinoma cell line. In various embodiments of the invention, the MV522 cell line represents a “target” cell line. […] The two hour toxicity data represents the concentration of a given analog for which a two hour exposure will inhibit 50% of the DNA synthesis activity in a given cell line. The 48 hour exposure data represents the concentration at which a given analog with a 48 hour exposure will inhibit the growth or viability in a given cell line as defined by the standard Trypan Blue Exclusion assay.

MV522 cell line [2] = assay: two hour toxicity: inhibition of 50% of DNA synthesis activity, target cell line; conditions: read-out: Mean IC50 value, MV522 Target Cell Line, 2 hr exposure; MV522 target cell line; 2 hr exposure; mean ± SD, N = 3 unless otherwise indicated
Procedure: as §1

8392B cell line [3] = assay: two hour toxicity: inhibition of 50% of DNA synthesis activity, nontarget cell line; assay type: cell-based; conditions: read-out: Mean IC50 value, 8392B Nontarget Cell Line, 2 hr exposure, mean ± SD, N = 3 unless otherwise indicated
Procedure: as §1

MV522 cell line [4] = assay: 48 hour exposure, growth or viability by Trypan Blue Exclusion assay, target cell line; assay type: cell-based; conditions: read-out: Mean IC50 value, MV522 Target Cell Line, 48 hr exposure, mean ± SD, N = 3 unless otherwise indicated
Procedure: as §1

MCF7 (ER positive) = assay: cytotoxic data IC50, 2 hour exposure, cells expressing the estrogen receptor; assay type: cell-based
Text: (§2) MCF7 over express estrogen alpha-receptors.
(§3) MCF7 cells over express estrogen alpha-receptors.

HT29 (ER Negative) = assay: cytotoxic data IC50, 2 hour exposure, cells not expressing the estrogen receptor; assay type: cell-based; conditions: N = 3, mean ± SD
Text: as §2, §3

| Structure (SMILES) | IC50 (MV522 cell line [2]) | IC50 (8392B cell line [3]) | IC50 (MV522 cell line [4]) | also measured |
| --- | --- | --- | --- | --- |
| CC1=C(CO)C2=C(C)C3(CC3)[C@@](C)(O)C(=O)C2=C1 [Analog 002] |  |  |  | inhibition of the nontarget cell line with prolonged exposure (8392B cell line [1]; prolonged exposure period (e.g. 48 hours)): can eventually inhibit the nontarget cell line |
| CC1=C(COC2OC(CO)C(O)C(O)C2O)C2=C(C)C3(CC3)C(C)(O)C(=O)C2=C1 (stereo not drawn) [Analog 018] | 8.8 ± 2.9 µM |  |  |  |
| CC1=C(CSCCC(N)C(=O)O)C2=C(C)C3(CC3)[C@@](C)(O)C(=O)C2=C1 (stereo partly drawn) [Analog 097] |  | > 82 µM |  |  |
| CC1=C(CSC[C@@H](C)C(=O)N2CCCC2C(=O)O)C2=C(C)C3(CC3)[C@@](C)(O)C(=O)C2=C1 (stereo partly drawn) [Analog 098] | 18.8 ± 2.5 µM | > 65 µM | 4.6 ± 0.25 µM | IC50 (8392B cell line [1]): 11.7 ± 1.8 µM |
| CC1=C2C(=O)C(C)(CO)C=C2C(=O)C(C)(O)C12CC2 (stereo not drawn) [Analog 099] | 8.4 ± 1.1 µM | 4 ± 0.4 µM |  |  |
| CC1=C(CSCC(N)C(=O)NC(CC(N)=O)C(=O)NCC(=O)NC(CCCNC(=N)N)C(=O)NC(CS)C(=O)O)C2=C(C)C3(CC3)C(C)(O)C(=O)C2=C1 (stereo not drawn) [Analog 102] (H-C(X3)NGRC-OH; configuration not given here) | > 13 µM |  |  |  |
| CC(=O)OCC1=C(CO)C=C2C(=O)C(C)(OC(C)=O)C3(CC3)C(C)=C21 (stereo not drawn) [Analog 103] | 31.8 ± 4.9 µM | 12.1 ± 2 µM | 5.9 ± 0.4 µM |  |
| CC1=C2C(=CC(C)(C)[C@@H]2OC(=O)CCCC(=O)Oc2ccc3c(c2)CC[C@@H]2[C@@H]3CC[C@]3(C)C(=O)CC[C@@H]23)C(=O)[C@](C)(O)C12CC2 [Analog 107] | > 50 µM | > 50 µM |  |  |
| CC1=C(CCC(=O)Oc2ccc3c(c2)CCC2C3CCC3(C)C(O)CCC23)C2=C(C)C3(CC3)C(C)(O)C(=O)C2=C1 (stereo not drawn) [Analog 108] | 12.3 ± 2.3 µM | > 55 µM | 0.52 ± 0.05 µM | IC50 (MCF7 (ER positive); N = 3, mean ± SD): 14.1 ± 2.8 µM; IC50 (HT29 (ER Negative)): > 55 µM |
| CC1=C2C(=CC(C)(C)C2OC(=O)CCCC(=O)Oc2ccc3c(c2)CCC2C3CCC3(C)C(O)CCC23)C(=O)C(C)(O)C12CC2 (stereo not drawn) [Analog 109] | > 50 µM | > 50 µM |  |  |
| CC1=C(CCC(=O)Oc2ccc3c(c2)CC[C@@H]2[C@@H]3CC[C@]3(C)C(=O)CC[C@@H]23)C2=C(C)C3(CC3)[C@@](C)(O)C(=O)C2=C1 [Analog 110] | > 55 µM | > 55 µM |  | preferential killing of MCF7 (ER positive) versus ER negative cells (MCF7 (ER positive); Table VII): preferentially killed; IC50 (8392B cell line [1]): 25.3 ± 2.1 µM; IC50 (HT29 (ER Negative)): > 19 µM |
| CC1=C(CCC(=O)OC2CCC3(C)C(CCC4C5CCC(=O)C5(C)CCC43)C2)C2=C(C)C3(CC3)[C@@](C)(O)C(=O)C2=C1 (stereo partly drawn) [Analog 112] |  | 14.9 ± 0.1 µM |  | IC50 (8392B cell line [1]): 5.2 ± 0.3 µM |
| CC1=C2C(=CC(C)(COC(=O)CCCC(=O)O)C2OC(=O)CCCC(=O)O)C(=O)C(C)(O)C12CC2 (stereo not drawn) [Analog 117] |  |  |  | IC50 (8392B cell line [1]): 0.01 ± 0.002 µM |
| CC1=C2C(=CC(C)(COC(=O)c3cc([N+](=O)[O-])cc([N+](=O)[O-])c3)C2OC(=O)CCCC(=O)O)C(=O)C(C)(O)C12CC2 (stereo not drawn) [Analog 118] |  | 24.5 ± 4.5 µM |  |  |
| CC(=O)ON(C(C)=O)c1ccc(C(=O)OCC2(C)C=C3C(=O)C(C)(O)C4(CC4)C(C)=C3C2O)cc1 (stereo not drawn) [Analog 136] |  | > 6.2 µM |  |  |
| CC(=O)ON(C(C)=O)c1ccc(C(=O)OCC2(C)C=C3C(=O)C(C)(O)C4(CC4)C(C)=C3C2OC(=O)c2ccc(N(OC(C)=O)C(C)=O)cc2)cc1 (stereo not drawn) [Analog 140] |  |  | > 14 µM | IC50 (8392B cell line [1]): > 14 µM |
| COC(=O)C1=C(C(=O)OC)C23C=C(C)C1C2=C(C)C1(CC1)C(C)(O)C3O (stereo not drawn) [Analog 141] |  | 13.7 ± 1.9 µM | 3.7 ± 0.8 µM |  |
| COC(=O)C1=C(C(=O)OC)C23C=C(C)C1C2=C(C)C1(CC1)C(C)(O)C3=O (stereo not drawn) [Analog 142] |  |  | 0.024 ± 0.007 µM |  |
| CON(CC1=C(C)C=C2C(=O)[C@](C)(O)C3(CC3)C(C)=C21)C(=O)C(N)Cc1c[nH]c2ccccc12 (stereo partly drawn) [Analog 154] | > 70 µM | > 70 µM |  |  |
